Assay results from patent publication US12528774B2, “Thiosemicarbazone compounds and uses thereof” (The Regents of the University of California, priority 2019, dated 2026).

Assays:
143 BTK ρ0 cells = assay: Viability (trypan blue) and cell cycle in 143 BTK ρ0 cells; type: cell-based; details: HCT13 + 20 μM Cu(II), 48 hours
Experimental: FIG. 3A: Mito Stress Test of MIAPACA2 PDAC cells treated with HCT13 (25 nM)+Cu(II) (20 μM) for 24h. FIG. 3B: electron flow assay in isolated mitochondria treated with HCT-13 (100 nM)+Cu(II) (20 μM) for 1h. FIG. 3C: viability of 143 BTK parental (wild type, WT) and ρ0 cells after 48h of the indicated HCT13 concentration+Cu(II) (20 μM) treatment, assessed with Trypan Blue Staining. FIG. 3D: 48h cell cycle histogram and plots of S-phase arrest plots in 143 BTK WT and 143 BTK ρ0 cells at 24, 48 and 72h following treatment with indicated concentrations of HCT13+Cu(II)(20 μM). (mean±SD, n=2, one-way ANOVA corrected for multiple comparisons by Bonferroni adjustment, * P<0.05; ** P<0.01; *** P<0.001).
Another HCT compound, Dp44mT, was reported to increase AMPK expression and induce ROS, although its cytotoxicity was not attributed to the functionality of the mitochondria. (Ref 50). […] Both 143 BTK ρ0 and parental (wild type, WT) cells were treated with HCT13+20 μM Cu(II) for 48 hours, after which cell viability was determined through trypan blue staining (FIG. 3C).
Viability/Apoptosis assay: Viable cells were measured by Trypan blue staining using vi-cell counter (Beckman Coulter, CA, USA). […]
Cell cycle: Cell cycle was assessed using Propidium iodide staining at indicated timepoints. […]

MIAPACA2 cells = assay: Viability assay (trypan blue) in MIAPACA2 cells with co-treatments; type: cell-based
Source text: FIG. 1A: IC50 values in a panel of human and mouse prostate cancer (PC)(cell lines CF-2, LNCaP, 22Rv1, RM-1, MyC CaP); small cell lung carcinoma (SCLC)(cell lines NCI-H1963, NCI-H146, NCI-H526); pancreatic ductal adenocarcinoma (PDAC)(CFPAC1, SW1990, HS766T, PANC0203, PANC0813, ASPC1, HPAFII, PATU8902, PANC0327, PANC1, YAPC, L36PL, XWR200, HUPT4, A13A, SUIT2, DAN-G, BxPC3, HPAC, PSN1, SU8686, KP4662, MIAPACA2, PATU8988T); and leukemia (cell lines KG-1, TF-1, Jurkat, MOLT-4, p185-R, MV4-11) models treated with HCT13+Cu(II) (20 μM) for 72 h measured by CellTiterGlo. […] (mean±SD, n=2, one-way ANOVA corrected for multiple comparisons by Bonferroni adjustment, * P<0.05; **P<0.01; ***P<0.001).
FIGS. 2A-2I. FIG. 2A: representative immunoblots of MIAPACA2 PDAC cells treated as indicated for 24h. FIGS. 2B-2C: reactive oxygen species (ROS) measurement using CM-H2DCFDA staining after HCT13 (25 nM)+Cu(II) (20 μM) treatment for 24h; mean fluorescence intensity (MFI); mean±SD, n=2, Student t-test, ***P<0.001. FIG. 2D-2E: mitochondrial ROS detection using MitoSOX staining in MIAPACA2 PDAC cells treated with HCT-13 (25 nM)+Cu(II) (20 μM) for 24h; mean±SD, n=2, Student t-test, ***P<0.001. FIG. 2F: oxygen consumption rate (OCR) of MIAPACA2 PDAC cells treated with HCT-13 (25 nM)+Cu(II) (20 μM). FIG. 2G: OCR of isolated mitochondria measured with or without HCT-13 (25 nM)+Cu(II) (20 μM). FIG. 2H: viability of 143 BTK parental (wild type, WT) and po cells after 48 h of treatment with the indicated HCT-13 concentrations+Cu(II) (20 μM) treatment, assessed with trypan blue staining; mean±SD, n=2, Student t-test, ***P<0.001. FIG. 2I: cell viability by trypan blue staining in MIAPACA2 PDAC cells to interrogate the interaction of HCT-13 (25 nM)+Cu(II) (20 μM) with 2-DG (2 mM) for 48 h; mean±SD, n=2, Student t-test, ***P<0.001.
FIG. 5A: rescue of HCT-13 (25 nM)-induced cell death by Uridine (rU) (200 μM), Pyruvate (1 mM), or both following 48h of treatment. FIG. 5B: measurement of DHODH activity using recombinant DHODH assay following treatment with indicated perturbations for 2 min. DHODH inhibitor used: NITD-982-1 μM; HCT-13-100 nM, 1 μM, (100 nM data shown); Cu(II)—20 μM. (mean±SD, n=2, Student t-test, * P<0.05).
Viability/Apoptosis assay: Viable cells were measured by Trypan blue staining using vi-cell counter (Beckman Coulter, CA, USA). Apoptosis and cell death were assayed using Annexin V-FITC and PI according to manufacturer's instructions (FITC Annexin V Apoptosis Detection Kit, BD Sciences, #556570).
Viability/Apoptosis assay. Viable cells were measured by Trypan blue staining using a Vi-Cell counter (Beckman Coulter, CA, USA). […]

CN(C)C(=S)N/N=C/c1nccc2cc(F)ccc12 (mixture of isomers) [HCT13, (E)-2-((6-Fluoroisoquinolin-1-yl)methylene)-N,N-dimethylhydrazine-1-carbothioamide and (Z)-2-((6-Fluoroisoquinolin-1-yl)methylene)-N,N-dimethylhydrazine-1-carbothioamide]
sensitivity of ρ0 cells compared to WT (viability) (143 BTK ρ0 cells): significantly less sensitive | cytotoxicity in presence of bathocuproine disulfonate (BCPS) (MIAPACA2 cells; HCT13 25 nM + Cu(II) 20 μM, 24 h, BCPS 300 μM): abrogated | activity with co-administration of 2-deoxyglucose (2-DG) (MIAPACA2 cells; HCT-13 25 nM + Cu(II) 20 μM, 2-DG 2 mM, 48 h): significantly potentiated | cytotoxicity with pyruvate supplementation (MIAPACA2 cells; HCT-13 25 nM, pyruvate 1 mM, 48 h): not by pyruvate | cytotoxicity with uridine (rU) supplementation (MIAPACA2 cells; HCT-13 25 nM, uridine 200 μM, 48 h): partially abolished
